Results: PMC3514216, “SRC Homology 2 Domain Binding Sites in Insulin, IGF-1 and FGF receptor mediated signaling networks reveal an extensive potential interactome” (Cell Communication and Signaling : CCS, 2012)

Test system: panel of 50 SH2 domains
Assay: SPOT peptide array probed with each of 50 GST-SH2 domains
Assay type: binding
Conditions: for SH2 Domains >3X / 2X < SH2 Domains < 3X: SPOT192 peptide array; for SH2 Domains >3X: list of GST-SH2 domains with spot intensity >3X array mean (array-positive); for 2X < SH2 Domains < 3X: list of GST-SH2 domains with spot intensity between 2X and 3X array mean (indeterminate range)
Source text: The use of addressable peptide arrays is a reproducible and semi-quantitative approach that has been extensively validated for studying protein interactions with peptide ligands. To investigate connections between SH2 domain proteins and their putative phosphorylated docking sites on cell surface receptors, we developed addressable arrays consisting of 192 phosphotyrosine peptides. This peptide set was assembled using 71 phosphotyrosine peptide motifs corresponding to all of the cytoplasmic tyrosine residues within the FGF receptors (FGFR1-4), insulin receptor (InsR) and IGF-1 receptor (IGF-1R) (Figure 1A). Activation of these receptors results in the phosphorylation of associated scaffold proteins, and so 75 phosphotyrosine peptides corresponding to a comprehensive list of tyrosine residues within insulin receptor substrates (IRS-1 and IRS-2) and fibroblast receptor substrates (FRS-2 and FRS-3) were included. In addition, 33 phosphotyrosine peptides were incorporated from the downstream signaling proteins PLC-γ1, p130Cas (BCAR1) and p62DOK1. […] These control peptides provide a reference and establish the empirical cut-off for designated binding interactions (Table 1). No discrimination was made against peptides on the basis of reported phosphorylation state in order to examine a diverse and unbiased set of motifs. The resulting set of 192 phosphotyrosine peptides and their corresponding position in the proteins of origin is noted in Additional file 1: Table S1. Addressable arrays were synthesized as membrane-bound 11-mer peptides using the SPOT synthesis technique. While the majority of SH2 domains recognize residues C-terminal to the phosphotyrosine in their cognate peptide ligands, additional contacts between SH2 domains and residues N-terminal to the phosphotyrosine are observed for the SH2 domain of Sh2d1a (SAP) and cannot be ruled out in other cases. Peptides were synthesized with six flanking residues C-terminal to the phosphotyrosine and four residues N-terminal to the phosphotyrosine.
To assess the potential network of SH2 domain interactions we selected 50 SH2 domains representing 28 of the 38 families of SH2 domains (Figure 1B) all of which we have previously shown can be expressed and purified. These include a number of extensively studied SH2 domains (Src, Grb2, PLCγ), as well as a number of less studied SH2 domains from proteins such as Shd, She, Shf, Slnk (Sh2d6), Sh2d1a (SAP), Sh2d1b (Eat-2), and Brdg1. To address potential variability in specificity within families we employed all members from the SHB, CRK, GRB2, SRC and ABL families (families are indicated with complete Capitalized lettering).
SH2 domains were arrayed as GST fusion proteins and detected using anti-GST primary antibodies and near-infrared labeled secondary antibodies. In an effort to present a dataset with minimal false positives, we chose an empirical cutoff based on the array average across all peptide spots to classify interactions (Figure 1A). In cases where the intensity of the signal for an individual SH2-domain binding event exceeded the mean intensity of all the peptides on the membrane by three-fold were scored as “array positives” [22]. Non-binding was judged in cases where the intensity of a spot was less than the mean intensity of all spots on the membrane and these were scored as “array negatives”. Peptides with signal intensities between 1X and 3X mean were scored as “indeterminate” and ascribed as neither array positive binding interactions nor array-negative non-binders. […] This signature may be indicative of promiscuity differences between phosphopeptides or there may be a subset of peptides which interact in a nonspecific fashion with either the GST fusion tag or one of the antibodies used for detection, resulting in false positives. […]

Substance	SH2 Domains >3X	2X < SH2 Domains < 3X	Other SH2 domains bound (additional array-positive SH2 domains) (SH2 domains with intensity >3X array mean, GST-SH2 0.25 μM, 1 mM DTT)
PVLSpYYSLPRS [C12]	CRK, CRKL, Sh2b, SYK_C	BRDG1, SHF	–
SLDEpYGSSPGD [D09]	SLNK	BLK, LCK	–
VFTTpYSDVWSF [B13]	ABL1, ABL2, BRK, ITK, RASA1_N, RASA1_C, RIN1, SH2D1B, SH2D2A, SHC1	BCAR3, CRK, NCK1, PI3K1_N, SHIP1	–
YWDLpYEHAQQQ [H18]	ABL1, BCAR3, BMX, FER, ITK, MATK, RASA1_N, RASA1_C, SH3BP2, SHB, TENC1	CRKL	–
SRGDpYMTMQMS [C19]	PI3K1_C	–	–
PVAPpYWTSPEK [E01]	–	ABL1	–
HHIDpYYKKTTN [E13]	BCAR3, BMX, BRDG1, FER, MIST, PLCG2_N, PTPN11_C, SHB, SHF, TENC1	DAPP1, ITK, MATK, PI3K1_N, PTPN11_N, RIN1, SH3BP2, SHD, SHE, SHIP1, SYK_C	–
EDPIpYDEPEGL [H19]	ABL1, BLK, HCK, NCK1, SHC1, SLNK, SRC	BMX, LCK, LYN, YES	–
EDLSpYGDVPPG [B23]	ABL1, BRK, FGR, FYN, LCK, LYN, SH2D1B, SHC1, SHIP1, SLNK, YES	BLK, HCK, GRB7	–
AACDpYESCATA [A01]	PI3K1_C	CRKL, HCK	–
RLEYpYENEKKW [B20]	ABL1, ABL2, BMX, BRK, FER, FGR, HCK, GADS, GRAP, GRB2, GRB7, MATK, MIST, PI3K1_N, PI3K1_C, RIN1, SH2D1B, SH2D2A, SH3BP2, SHF, TENC1, VAV1	BCAR3, BRDG1, CRK, ITK, PLCG2_N, PTPN11_N, PTPN11_C, Sh2b, SHC1, SHD, SRC	–
PGLDpYSFDTCK [F09]	ABL1, CRK, CRKL, HCK, GRB7, SHIP1, SRC, ZAP70_N	FGR, SHC1	–
PTYFpYVTDYLD [A15]	BCAR3, BRK, ITK, MATK, PLCG2_N, PLCG2_C, RASA1_N, SH2D2A, SLNK, SYK_C, VAV1	DAPP1, RIN1, SH2D1B, TENC1	–
QGYVpYEAAQPE [H09]	VAV1	ZAP70_N	–
PRLEpYYESEKK [C24]	–	ZAP70_N	–
RSDDpYMPMSPA [D19]	–	PI3K1_C	–
HKIEpYSRRRDA [G08]	BRDG1, BRK, PLCG2_N, SHF, TENC1	BCAR3, BMX, ITK, MIST, PLCG2_C, SHB, SYK_C	–
PGLEpYCYNPSH [E09]	ABL1, GRB7, ZAP70_N	–	–
AEPQpYEEIPIY [A10]	BLK, BRK, FER, FGR, HCK, LYN, NCK1, PLCG2_C, SHC1, SRC, YES	ABL1, BMX, DAPP1, FYN, LCK, RIN1, SH2D1B, SRC	–
SLTIpYAQVQKA [A08]	BCAR3, BMX, BRDG1, FER, MATK, SH2D1B, TENC1	MIST, PI3K1_N, PTPN11_N, PTPN11_C, RIN1, Sh2b, SHC1, SHD, SYK_C	–
EDSGpYMRMWAG [D20]	FYN, PI3K1_C	LCK	–
SVIVpYKMKSGT [E04]	BCAR3, BMX, BRDG1, TENC1	BRK, FER, MIST, PTPN11_C, SHF, SHD, SYK_C	–

Substance	SH2 Domains >3X	2X < SH2 Domains < 3X	Other SH2 domains bound (additional array-positive SH2 domains) (SH2 domains with intensity >3X array mean, GST-SH2 0.25 μM, 1 mM DTT)
ADNDpYIIPLPD [A07]	BRK, DAPP1, PLCG2_N, PLCG2_C, SRC, VAV1	HCK, LCK, LYN, PI3K1_N, RIN1, SH2D1B, YES	–
DSDQpYVLMSSP [D23]	FYN, LYN, PI3K1_N, PI3K1_C, SHIP1	BLK, FGR, LCK, SH2D1B	–
LTGVpYRLCLSA [D08]	–	BCAR3, BRDG1, MIST, TENC1	–
TDDGpYMPMSPG [C06]	HCK, PI3K1_C, SRC	FYN	–
LGPLpYASSNPE [A18]	ZAP70_N	–	–
VSEEpYLDLRLT [F18]	BMX, RASA1_N, SHB, SHD	–	–
ARLEpYYENEKK [B19]	GRB7, MIST, SH3BP2	SH2D2A, SHF, SHD	–
AKHKpYLIALYT [D02]	BRDG1, BRK	BCAR3, BMX, FER, PLCG2_N, PTPN11_C, RIN1, SHF, TENC1	–
ETDYpYRKGGKG [B02]	BCAR3, BRDG1, BRK, TENC1	BMX, MIST, PLCG2_N, RIN1, SHF, SYK_C	–
PNGDpYLNVSPS [D21]	GADS, GRAP, GRB2, GRB7, VAV1	HCK, PI3K1_N, SH2D1B, SHIP1	–
EGSApYEEVPTS [G20]	BRK, FGR, LYN, NCK1, SH2D1B, SHC1, YES	BLK, FER, FYN, HCK, GRB7, LCK	–
TFGPpYSPSGGD [F19]	–	ZAP70_N	–
VIVEpYASKGNL [E07]	–	BCAR3	–
PPALpYAEPLDS [H15]	ABL1, ITK, NCK1, RASA1_N, RASA1_C, VAV1, ZAP70_N	ABL2	–
WYPHpYFVLTSS [G24]	ABL2, CRK, CRKL, ITK, MATK, MIST, PI3K1_C, PTPN11_C, SH2D1B, SHD, SHIP1, ZAP70_N	BCAR3, GRB7, SHC1	–
AYHPpYPEDYGD [D16]	BMX	MATK, SLNK	–
RQLNpYIQVELK [G14]	BCAR3, MIST, PTPN11_N, SHE	BRDG1, SHD, TENC1	–
AEDVpYDVPPPA [A04]	CRK, CRKL, HCK, NCK1, SRC	FYN, LYN, YES	–
LPNGpYPRYPSF [F24]	BRDG1, GRAP, GRB2, MIST, PTPN11_C, Sh2b, SHB, SHF	BCAR3, BMX, PLCG2_N, PLCG2_C, SHD, SYK_C, TENC1	–
HIDYpYKKTTNG [E14]	BCAR3, BMX, BRDG1, CRK, FER, MIST, PTPN11_C, SHF, TENC1	CRKL, ITK, PLCG2_N, PLCG2_C, PTPN11_N, RIN1, SH3BP2, SHB, SHD, SYK_C, ZAP70_N	–
SLDEpYTLMRAT [D14]	–	PI3K1_C	–
ATDLpYQVPPGP [H08]	CRK	CRKL	–

Substance	SH2 Domains >3X	2X < SH2 Domains < 3X	Other SH2 domains bound (additional array-positive SH2 domains) (SH2 domains with intensity >3X array mean, GST-SH2 0.25 μM, 1 mM DTT)
SDAYpYGPEDPH [C11]	–	BLK, BMX, DAPP1, FYN, GRB7, LCK, LYN, PLCG2_C, RASA1_C, SH2D1B, SHC1	–
GGSPpYPGIPVE [F01]	ZAP70_N	–	–
EFYGpYMTMDRP [D11]	PI3K1_C	–	–
TNEEpYLDLSQP [F02]	–	BLK, FYN, SH2D1B, SRC, ZAP70_N	–
TKDEpYFAVAAE [D04]	–	SH2D1B	–
STVEpYSTVVHS [A11]	BRDG1, BRK, CRK, PTPN11_N, PTPN11_C, SH2D1B, SHC1, SHIP1	ABL2, RIN1	–
GLDEpYDEVPMP [A05]	NCK1	BRK, FER	–
PQGLpYDLPREP [H20]	ABL1, CRK, CRKL, NCK1, ZAP70_N	HCK	–
AKTGpYENFIHL [B10]	GADS, GRB2, GRB7, MIST, PI3K1_N, SH2D2A, SH3BP2, TENC1	BRDG1, BRK	–
LIALpYTKDEYF [D03]	SH2D2A	ABL1, PLCG2_C	–
EVSFpYYSEENK [B15]	DAPP1, ITK, PLCG2_C, RASA1_C, Sh2b, SHB, SHE, SYK_C, VAV1	ABL1, BLK, MATK, RASA1_N	–
CTGDpYMNMSPV [C09]	–	PI3K1_C	–
GVSEpYELPEDP [E05]	BRK, NCK1, PLCG2_C, VAV1, YES	BLK, BMX, DAPP1, FER, FGR, LCK, LYN, RIN1, SH3BP2, SHC1	–
PPALpYAEPLDS [11-mer phosphotyrosine peptide, p62DOK1 (Y296)]	–	–	Abl1, Nck1, Vav1, Zap70_N
RGMEYpLASKKA [E12]	BCAR3, BRDG1, TENC1, ZAP70_N	BMX, FER, MIST, PLCG2_N, SHB, SHF	–
FESRpYQQPFED [H06]	ABL1, ABL2, CRK, CRKL, HCK, ITK, NCK1, RASA1_N, RASA1_C, VAV1	MATK, PLCG2_N, SH2D2A, SRC	–
NALGpYTVSSFS [G11]	ABL2, CRK, CRKL, GRB7, MATK, SH2D2A	ABL1	–
THDLpYMIMREC [F10]	–	PI3K1_C	–
EGPLpYVIVEAA [F13]	ITK, MATK, PLCG2_N, RASA1_N, SYK_C	ABL2, PLCG2_C, PTPN11_N, SH2D1B	–
NGLNpYIDLDLV [C22]	BCAR3, ITK, PLCG2_C, PTPN11_N, RASA1_N, Sh2b, SHB, SHF, SHD, SHE, TENC1	DAPP1, FGR, LCK, LYN, RASA1_C, SYK_C, YES	–
YETDpYYRKGGK [B01]	BCAR3, BMX, BRDG1, BRK, ITK, PLCG2_N, RIN1, TENC1	FER, MIST, PTPN11_C, SH2D2A, SHB, SHF, SHD, SHE, SYK_C	–
